Patent US6673355B1 (priority 1995, dated 2004)
Values joined by “and” are separate entries in the source; they are usually repeats but may differ in a detail not shown here. Identical values can stand only once. “Also recorded” adds a separate entry of the source. Like-named read-outs stand apart in the source and are kept apart here.

How the values were obtained:
CD1 mice ileal mucosa = format: cell-based, mouse
insect cells = details: cited from earlier work
[1] = test system: infectious SA11 rotavirus; details: mouse, in vivo
CD1 mice = details: mouse, in vivo
[2] = in vivo
Balb/C mice = details: mouse, in vivo, ip
19 day old pups = details: mouse, in vivo
CFTR knock-out mice = details: mouse, in vivo
mice [3] = details: mouse, in vivo
mice [4] = details: mouse, in vivo; cited from earlier work
simian rotavirus SA11 = details: mouse, in vivo
murine rotavirus ECwt = details: mouse, in vivo
full-length NSP4 = test system: full-length NSP4; parameters: species or system simian rotavirus SA11; details: in vivo, sc
SA11 VP6 = SA11 VP6 (Rotavirus A, UniProt P03531); parameters: species or system simian rotavirus SA11; details: in vivo
Sequence of SA11 VP6 (P03531 whole entry, looked up): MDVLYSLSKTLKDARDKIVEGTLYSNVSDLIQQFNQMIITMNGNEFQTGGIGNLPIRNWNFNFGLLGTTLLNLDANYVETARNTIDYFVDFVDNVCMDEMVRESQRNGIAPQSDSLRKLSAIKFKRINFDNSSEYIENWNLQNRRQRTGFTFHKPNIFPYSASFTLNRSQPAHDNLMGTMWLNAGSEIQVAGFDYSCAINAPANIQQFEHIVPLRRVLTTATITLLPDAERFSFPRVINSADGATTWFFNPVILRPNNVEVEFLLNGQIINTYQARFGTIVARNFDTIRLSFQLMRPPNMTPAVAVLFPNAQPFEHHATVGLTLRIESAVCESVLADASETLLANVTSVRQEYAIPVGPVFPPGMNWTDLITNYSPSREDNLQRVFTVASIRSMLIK

C[N+](C)(C)CCOC(N)=O [Carbachol (Cch), carbachol]
Isc with FSK (potentiated effect of FSK) (CD1 mice ileal mucosa): 64 μA/cm^2
increase in mucosal Isc after FSK pretreatment (CD1 mice ileal mucosa): 63 μA/cm2
▴ISC (CD1 mice ileal mucosa): 9 ± 2 μA/cm^2 and 14 ± 4 μA/cm^2

C=C[C@@]1(C)CC(=O)[C@]2(O)[C@@]3(C)[C@@H](O)CCC(C)(C)[C@@H]3[C@H](O)[C@H](OC(C)=O)[C@@]2(C)O1 [Forskolin (FSK), forskolin]
▴ISC (CD1 mice ileal mucosa): 44 ± 0.7 μA/cm^2 and 41 ± 7 μA/cm^2

DKLTTREIEQVELLKRIYDKLT [NSP4 114-135]
intracellular calcium in insect cells (insect cells): mobilize intracellular calcium levels
% pups with diarrhea, 2 days [1]: 17%
% pups with diarrhea, 3 days [1]: 0%
% pups with diarrhea, Total [1]: 42%
pups with diarrhea/total pups, 2 days [1]: (2/12)
pups with diarrhea/total pups, 3 days [1]: (0/12)
pups with diarrhea/total pups, Total [1]: (5/12)
time frame of diarrhea induction (CD1 mice): about 3 hrs
# responders/total # tested (CD1 mice; ip): 8/12
% Diarrhea (CD1 mice; ip): 67%
DD50 (50% diarrheal dose) (CD1 mice; ip): 79 nmol
diarrhea typically continued for (CD1 mice; ip): up to 8 hr
weight lower than normal animals [2]: 20-30%
% Diarrhea (Balb/C mice): 100% and 80%
increase in mucosal Isc after FSK pretreatment (CD1 mice ileal mucosa): 64 μA/cm2
diarrhea (19 day old pups): no diarrhea was seen
intestinal fluid accumulation (19 day old pups): significant fluid accumulation
% of animals with diarrhea (CFTR knock-out mice): 80%

DTGRNLGEFKAYPDGFLTCV [NV 464-483]
# responders/total # tested (CD1 mice; ip): 0/10
% Diarrhea (CD1 mice; ip): 0%
symptoms with control peptides (CD1 mice; ip): No symptoms

EIEQVELLKRIYDKLTVQTTGEIDMTKE [NSP4 120-147]
% animals with diarrhea (mice [3]): 88%
animals with diarrhea (mice [3]): 7 out of 8
animals with severe diarrhea (mice [3]): 5 of 5

EKLTDLNYTLSVITLMNNTLH [NSP4 2-22]
% pups with diarrhea, 2 days [1]: 63%
% pups with diarrhea, 3 days [1]: 25%
% pups with diarrhea, Total [1]: 100%
pups with diarrhea/total pups, 2 days [1]: (10/16)
pups with diarrhea/total pups, 3 days [1]: (4/16)
pups with diarrhea/total pups, Total [1]: (16/16)
# responders/total # tested (CD1 mice; ip): 0/11
% Diarrhea (CD1 mice; ip): 0%
symptoms with control peptides (CD1 mice; ip): No symptoms

MIDKLTTREI EQVELL KRIYDKLTVQTTGEIDMTKEINQKNVRTLEEWESGKNPYEPKEVTAAM [NSP4 112-175]
enterotoxin activity (mice [4]): has enterotoxin activity in mice

QS-21
Mean diarrhea score (simian rotavirus SA11): 3.5 and 3.3
Pups with diarrhea % at indicated DPI: 3 (simian rotavirus SA11): 100%
Pups with diarrhea % at indicated DPI: 4 (simian rotavirus SA11): 56%
Pups with diarrhea/total at DPI 2 (simian rotavirus SA11): (8/12); also recorded: (3/9)
Pups with diarrhea/total at DPI 3 (simian rotavirus SA11): (12/12); also recorded: (9/9)
Pups with diarrhea/total at DPI 4 (simian rotavirus SA11): (4/12); also recorded: (5/9)
Pups with diarrhea/total at DPI 7 (simian rotavirus SA11): (12/12); also recorded: (9/9)
duration of diarrhea (simian rotavirus SA11): at least two days
Pups with diarrhea % at indicated DPI: 2 (simian rotavirus SA11; po): 76%
Pups with diarrhea % at indicated DPI: 3 (simian rotavirus SA11; po): 100%
Pups with diarrhea % at indicated DPI: 4 (simian rotavirus SA11; po): 33%
Mean diarrhea score (murine rotavirus ECwt): 3.3
Pups with diarrhea % at indicated DPI: 0-8 (murine rotavirus ECwt): 100%
Pups with diarrhea % at indicated DPI: 2 (murine rotavirus ECwt): 29%
Pups with diarrhea % at indicated DPI: 3 (murine rotavirus ECwt): 100%
Pups with diarrhea % at indicated DPI: 4 (murine rotavirus ECwt): 100%
Pups with diarrhea % at indicated DPI: 5 (murine rotavirus ECwt): 100%
Pups with diarrhea % at indicated DPI: 6 (murine rotavirus ECwt): 86%
Pups with diarrhea % at indicated DPI: 7 (murine rotavirus ECwt): 71%
Pups with diarrhea % at indicated DPI: 8 (murine rotavirus ECwt): 14%
Pups with diarrhea/total at DPI 0-8 (murine rotavirus ECwt): (7/7)
Pups with diarrhea/total at DPI 2 (murine rotavirus ECwt): (2/7)
Pups with diarrhea/total at DPI 3 (murine rotavirus ECwt): (7/7)
Pups with diarrhea/total at DPI 4 (murine rotavirus ECwt): (7/7)
Pups with diarrhea/total at DPI 5 (murine rotavirus ECwt): (7/7)
Pups with diarrhea/total at DPI 6 (murine rotavirus ECwt): (6/7)
Pups with diarrhea/total at DPI 7 (murine rotavirus ECwt): (5/7)
Pups with diarrhea/total at DPI 8 (murine rotavirus ECwt): (1/7)
serum antibody geometric mean titers (GMT) to NSP4 full-length in dams (full-length NSP4): lacked antibody
serum antibody titers to VP6 in dams (GMT) (SA11 VP6): 2×10^3

TKDEIEKQMDRVVKEMRRQLEMIDKLTTREIEQ [NSP4 90-123]
# responders/total # tested (CD1 mice; ip): 2/10
% Diarrhea (CD1 mice; ip): 20%
